The text below walks through data of patent publication US12527773B2, “Flavi-block: a pan-flavivirus inhibitor” (Baden-Württemberg Stiftung GmbH, priority 2020, dated 2026).

Where two headings read alike, the source gives them in different places.

Broadly, the IC50 is the point on the concentration scale where inhibition reaches its midpoint. A higher IC50 goes with a need for much substance. By EC50 is commonly meant the concentration giving half of the maximal effect.

One data set deals with HBV. Put plainly: IC50 in established virological assays (Table 1), HBV. Type of data set: cell-based, Hepatits B Virus. Here is the method:
(§1) In summary, a set of C10 derivatives (FIG. 12) was designed, synthesized and tested against HCV (which is considered as an established system to monitor drug effects against Flaviviridae) as well as DENV for comprehensive structure-activity relationship (SAR) analysis and target validation. IC50 and CC50 values for compound C10 were determined in established virological assays (Table 1). […] Further, said experiments underline the specificity of compound C10 for flaviviruses.

In another data set the test system is ZIKA. Put plainly: IC50 in established virological assays (Table 1), ZIKA. The format is cell-based. The note with it: Zika virus.
The test system of the next data set is KUNV (MRM61C strain). Put plainly: Plaque assay of released virus, KUNV-infected Vero cells. The format is cell-based, Kunjin virus. Particulars: West Nile virus. On the procedure:
Vero cells were infected with KUNV at an MOI of 1 for 2 h (post infection), after which virus was removed, and fresh maintenance medium containing 2% FCS together with the indicated concentration of C10 added. For co-treat condition, Vero cells were infected with KUNV at an MOI of 1 in the presence of C10 for 2 h, followed by removal of the virus/C10 inoculums, and addition of fresh 2% fetal calf serum maintenance medium.
Vero and BHK-21 cells were maintained in DMEM media supplemented with 10% heat-inactivated FBS at 37° C. in a humidified incubator supplemented with 5% CO2; A549 cells were maintained in F-12K medium supplemented with 10% heat-inactivated Fetal Bovine Serum (FBS), 2 mM L-glutamine, 50 U/I penicillin, 0.05 mg/l streptomycin. DENV-1-4 strains, cell culture conditions and Gen-Bank accession numbers, as well as details of RSV strains and culture are known in the art. […] Viral titer was subsequently determined by plaque assay (see below).
Vero cells were seeded into 24-well plates at a density of 2×10^5 cells/well and grown overnight in culture medium at 37° C. with 5% CO2 prior to infection with RSV, KUNV, ZIKV as indicated. BHK-21 cells were used for DENV1-4. […] The stain was removed by rinsing the cells with tap water, and the viral plaques were counted visually. […]

The subject of a further data set is RSV. Put plainly: IC50 in established virological assays (Table 1), RSV. Type of data set: cell-based. The note with it: human respiratory syncytial virus. Here is the method: as §1
For a further data set, the system named is DENV-2. In words: Antiviral effect on DENV (virus release and entry), Vero cells, MOI 5. Type of data set: cell-based, Dengue virus. Particulars: co-treatment. Here is the method: (A) Vero cells were seeded and infected with DENV-2 at a multiplicity of infection (MOI) of 5. For co-treatment cells were incubated with a premixed suspension of drug and virus, for post-treatment with virus only for 2 h. Cells were subsequently washed with PBS and cultivated for co-treatment in DMEM supplemented with 2% FCS, for post-treatment in DMEM supplemented with 2% FCS spiked with the indicated concentrations of C10. The drug containing medium for post-treated cells was removed after 2 h and replenished with fresh DMEM supplemented with 2% FCS. 24 h after infection the supernatants were used for a Plaque assay. (B) RNA extraction; n=3 with SEM. (C, D) Cells were lysed for Western blot analysis using antibodies against viral proteins NS3 and NS5 and tubulin as a loading control.
For this purpose, Vero cells were plated and infected with DENV-2 at an infection multiplicity (MOI) of 5. For co-treatment, the cells were incubated with a previously mixed suspension of active substance and virus, for post-treatment with the virus alone, each for 2 h. The cells were then washed with PBS and cultivated for co-treatment in DMEM with 2 % FCS, for post-treatment in DMEM with 2 % FCS mixed with the indicated concentrations of compound C10. For the post-treated cells, the medium containing the active substance was removed after 2 h and replaced by fresh medium with 2 % FCS. […]

In a further data set the test system is Huh7.5 cells. Put plainly: Viability of treated Huh7.5 cells by MTT assay. The note with it: 10 μM, 24 h after treatment. Type of data set: cell-based. On the procedure: Huh7.5 cells were electroporated with HCV-JC1-Luc (reporter virus expressing luciferase via IRES) RNA and treated 24 h later with the best 20 candidates (10 μM). After another 24 h the supernatants were harvested. To quantify infectious particles, untreated Huh7.5 cells were inoculated with the supernatants and 36 h later the luciferase activity was measured. The viability of the same cells was determined 24 h after treatment with inhibitor by MTT assay (tetrazolium salt which is reduced in metabolically active cells resulting in a color change). For both parameters, 100% corresponds to the release or viability of the untreated or DMSO treated control. uninf.=not infected; untr.=not treated. Mean values and SD were derived from n =3 independent infections.
The viability of the same cells was determined 24 h after treatment with the candidate substances by MTT assay (tetrazolium salt reduced in metabolically active cells resulting in a color change) (FIG. 2). For both parameters, 100% of release or viability corresponds to the untreated or DMSO-treated control.
In general terms: Tetrazolium dyes change colour on reduction, which living cells bring about.

A short description of data set [1]: Solubilization in dosing vehicle recipes. Type of data set: physicochemical. On the procedure: The compound was assessed for solubilization in 5 different vehicle recipes: • 1. Physiological saline (0.9% NaCl solution in water) • 2. Kolliphor HS—physiological saline (20%:80%) • 3. DMSO-PEG400—physiological saline (20%:50%:30%) • 4. PEG400—5% dextrose in water (75%:25%) • 5. DMSO-Cremophor EL—5% Mannitol (10%:10%:80%)
To prepare the formulation using the DMSO-PEG400 —physiological saline (20%:50%:30%) recipe, the compound was first supplemented with the calculated volume of DMSO, vortexed for 1 minute and sonicated for 2 minutes at 40° C. Next, PEG400 and physiological saline were added. The final mixture was vortexed and sonicated for 2 minutes at 40° C. The working formulations batch was prepared for 1 h prior to the in vivo study.

In the next data set the test system is ChikV. Put plainly: IC50 in established virological assays (Table 1), ChikV. The format is cell-based. The note with it: Chikungunya virus.

`CCN1/C(=C\C=C\c2sc3cc(NC(C)=O)ccc3[n+]2CC)Sc2cc(NC(C)=O)ccc21.[I-]` [C10, 6-acetamido-2-((1E,3E)-3-(6-acetamido-3-ethylbenzo[d]thiazol-2(3H)-ylidene)prop-1-en-1-yl)-3-ethylbenzo[d]thiazol-3-ium iodide]: in the data set on HBV, the “activity against Hepatits B Virus (HBV)” value was “inactive or has only minor activity”. For the same compound, the IC50 in the data set on HBV (Hepatitis B virus, HBV) is over 10000 nM; with ZIKA, 100 to 200 nM; with RSV, 4300 nM; with ChikV, 5600 nM. Besides, the concentration giving a half-maximal response (EC50) amounted to 50 nM in the data set on KUNV (MRM61C strain) (read-out: EC50 from plaque assays, KUNV, c.t.) and 420 nM with KUNV (MRM61C strain) (read-out: EC50 from plaque assays, KUNV, p.i.). Also, the “viral proteins in cells (Western blot NS3, NS5)” value in the data set with DENV-2 (1 μM, compared to DMSO) is recorded as “viral proteins are detectable in the cells, albeit at lower amounts”. Further, the “productive infection (Western blot NS3, NS5)” value with DENV-2 (10 μM) is listed as “prevents a productive infection of the cells”. In the data set with Huh7.5 cells, the “cell viability (MTT)” value was “no negative effect on cell viability”. Also, the solubility entry in data set [1] (5 vehicle recipes) is on record as “very low solubility”. Further, the “concentration of full dissolution” value in data set [1] (only in DMSO-PEG400-physiological saline (20%:50%:30%)) stood at 1000 µg/mL.
